Test results: article PMC12340957, “Interactions between Lipopolysaccharide and Peptide Bacteriocin BacSp222 Influence Their Biological Activities” (ACS Infectious Diseases, 2025)
Ends that are not written are not given here. * marks the point of attachment. For = O=C*

Assays:
[1] = literature statement; ref number not given; cited from earlier work
Source text: Regarding factors produced by bacteria, the canonical example of molecules interacting with LPS are polymyxins. […] Polymyxins are effective antibacterial drugs that interact with LPS in the outer and inner membranes of the cell wall, ultimately causing a lethal effect. […] Colicins, a family of protein bacteriocins produced by , typically must cross the bacterial outer membrane to display bactericidal activity. Most colicins use porins and high-affinity receptors to cross the outer membrane and kill the target. However, for colicin N, there is no such high-affinity receptor, and this bacteriocin targets LPS instead. The receptor-binding domain of ColN binds to LPS near the membrane surface, and this interaction is required for its bactericidal activity. || Nisin, a peptide lantibiotic produced by , is another example of a bacteriocin that could utilize LPS as a receptor. […] The interaction described above leads to membrane disruption. The level of membrane disruption is related to the origin of the bacteria and the type of LPS as its rough type is more susceptible to nisin.

TLR4 = settings: literature statement; ref number not given; cited from earlier work
Source text: Proteins and peptides capable of recognizing and binding LPS as well as altering its biological activity are present in both higher organisms and bacteria. In higher organisms, these polypeptides are most often involved in the immune response. One of the best-known examples is LPS-binding protein (LBP). It is an acute-phase plasma protein of mammals that forms a complex with LPS, and this complex then binds to CD14 (cluster of differentiation 14). This event initiates a signaling pathway through TLR4/MD-2 and triggers the activation of immune response. , In the absence of TLR4, MD-2 can also i ... || Regarding factors produced by bacteria, the canonical example of molecules interacting with LPS are polymyxins. […] Polymyxins are effective antibacterial drugs that interact with LPS in the outer and inner membranes of the cell wall, ultimately causing a lethal effect.

[2] = molecular target: the molecule itself; assay: dynamic light scattering; BacSp222 alone at 5, 50 and 500 μg/mL in PBS without Ca2+ and Mg2+, incubated 15 min at 37 °C, measured at 37 °C (Prometheus Panta); performed once

Molecule: polymyxins [reference compound]
- interaction with LPS [1]: high affinity to LPS
- inhibition of LPS-induced TLR4 activation (TLR4): effectively block the biological effects of LPS, including TLR4 activation

Molecule: Nisin
- interaction with LPS [1]: forms a molecular complex in model membranes and bacterial outer membrane extracts

B1: colicin N: protein bacteriocin whose receptor-binding domain binds to LPS (protein, UniProt P08083 1-387, looked up)
Colicin-N: MGSNGADNAHNNAFGGGKNPGIGNTSGAGSNGSASSNRGNSNGWSWSNKPHKNDGFHSDGSYHITFHGDNNSKPKPGGNSGNRGNNGDGASAKVGEITITPDNSKPGRYISSNPEYSLLAKLIDAESIKGTEVYTFHTRKGQYVKVTVPDSNIDKMRVDYVNWKGPKYNNKLVKRFVSQFLLFRKEEKEKNEKEALLKASELVSGMGDKLGEYLGVKYKNVAKEVANDIKNFHGRNIRSYNEAMASLNKVLANPKMKVNKSDKDAIVNAWKQVNAKDMANKIGNLGKAFKVADLAIKVEKIREKSIEGYNTGNWGPLLLEVESWIIGGVVAGVAISLFGAVLSFLPISGLAVTALGVIGIMTISYLSSFIDANRVSNINNIISSVIR
- interaction with LPS [1]: targets LPS

B2: BacSp222 bacteriocin (peptide)
chain: For-MAGLLRFLLSKGRALYNWAKSHVGKVWEWLKSGATYEQIKEWIENALGWR
notes: molecular mass 5.922 kDa; also called peptide BacSp222
- binding result [2]: binds
